Measurements reported in the NIST ThermoML archive (doi:10.1016/j.tca.2019.03.028).
Numbers after ± are expanded uncertainties.

What was measured:
[1] = relative permittivity at various frequencies (dimensionless); settings: 293.15 K; 100 kPa; Liquid; Frequency=0.01 MHz; Coaxial cylinder capacitor
[2] = relative permittivity at various frequencies (dimensionless); wn = mass fraction of the nth substance listed; settings: 293.15 K, 100 kPa, Liquid, Frequency=0.01 MHz, Coaxial cylinder capacitor

relative permittivity ([2]; w2 = 0) | Compound | relative permittivity [1] | relative permittivity ([2]; w1 = 1) | also measured
– | CC#N [acetonitrile] | 37.7 ± 1.7 | – | –
– | CC#N [acetonitrile] + ClC(Cl)(Cl)Cl | – | 37.7 ± 1.7 | –
– | CC#N [acetonitrile] + c1ccccc1 | – | 37.7 ± 1.7 | relative permittivity ([2]; w1 = 0.25): 10.21 ± 0.49; relative permittivity ([2]; w1 = 0.5): 19.8 ± 0.93; relative permittivity ([2]; w1 = 0.75): 28.5 ± 1.3
– | c1ccccc1 [benzene] | 2.29 ± 0.13 | – | –
2.29 ± 0.13 | c1ccccc1 [benzene] + C1CCCCC1 | – | – | –
2.29 ± 0.13 | c1ccccc1 [benzene] + CC#N | – | – | –
– | C1CCCCC1 [cyclohexane] | 2.02 ± 0.12 | – | –
– | C1CCCCC1 [cyclohexane] + c1ccccc1 | – | 2.02 ± 0.12 | relative permittivity ([2]; w1 = 0.25): 2.2 ± 0.13; relative permittivity ([2]; w1 = 0.5): 2.13 ± 0.13; relative permittivity ([2]; w1 = 0.75): 2.07 ± 0.12
– | ClC(Cl)(Cl)Cl [tetrachloromethane] | 2.23 ± 0.13 | – | –

Compound | relative permittivity ([2]; w2 = 0) | relative permittivity [1] | relative permittivity ([2]; w1 = 1) | also measured
ClC(Cl)(Cl)Cl [tetrachloromethane] + CC#N | 2.23 ± 0.13 | – | – | relative permittivity ([2]; w2 = 0.25): 14.96 ± 0.71; relative permittivity ([2]; w2 = 0.5): 25.7 ± 1.2; relative permittivity ([2]; w2 = 0.75): 34.2 ± 1.6
